The structures appear in SMILES notation.

The first test deals with T1, human Nav1.1 (Homo sapiens, UniProt P35498).
T1 construct: host or cells: HEK293
Put plainly: Amplification of Nav1.1-derived voltage-gated sodium current (Nav1.1 current), automated patch clamp (Test 1). In kind it is cell-based. The conditions noted are these: Concentration for evaluation 1 μM; HEK293 cell line stably expressing human Nav1.1. The method in brief:
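HEK293 cells stably expressing human Nav1.1, restricted to cells with >500 pA current, were recorded by automated voltage-clamp patch clamp with a ramp voltage stimulus. Compounds were applied in HEPES-buffered extracellular solution with 1% DMSO. Amplification (%) = 100×(peak or AUC after/before compound)−100.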
For orientation: Patch clamp records ionic current or voltage across a cell membrane.
With `CC1CC=C(c2ccc(=O)n(CC(=O)N3CCc4c3ccnc4-c3cccnc3)n2)CC1` (stereo not shown) [Example 297], the “Nav1.1 current amplification rate (%)” value amounted to 151%.

With `CN(c1cnc2cnn(CC(=O)N3CCc4c(C5CN(C(=O)CO)C5)cccc43)c2n1)C1CCC1` [Example 696], the “Nav1.1 current amplification rate (%)” value turned out to be 306%.

With `CC1=CCN(c2ncc3cnn(CC(=O)Nc4ccn5ncnc5c4)c3n2)CC1` [Example 784], the “Nav1.1 current amplification rate (%)” value came to 45%.

For `CN(c1cnc2cnn(CC(=O)N3CCc4c(-c5cnn(C)c5)cccc43)c2n1)C1CCC1` [Example 694], the “Nav1.1 current amplification rate (%)” value turned out to be 448%. On the same count and under the same terms, then `CC1CC=C(c2ccc(=O)n(CC(=O)Nc3ccn4cncc4c3)n2)CC1` (stereo not shown) [Example 338], with 241%. Consider `COCCNCc1cccc2c1CCN2C(=O)Cn1nc(C2=CCC(C)CC2)ccc1=O` (stereo not shown) [Example 314], for which the “Nav1.1 current amplification rate (%)” value is recorded as 9%. For `CN(c1cnc2cnn(CC(=O)Nc3ccn4ccnc4c3)c2n1)C1CC1` [Example 702], the “Nav1.1 current amplification rate (%)” value was found to be 60%. As to `CN(CC1(C)CC1)c1cnc2cnn(CC(=O)Nc3ccn4ncnc4c3)c2n1` [Example 639], the “Nav1.1 current amplification rate (%)” value was 100%. In the case of `CC1CC=C(c2ccc(=O)n(CC(=O)Nc3cccc(-n4ccnc4)c3)n2)CC1` (stereo not shown) [Example 363], the “Nav1.1 current amplification rate (%)” value is listed as 174%.

`CN(c1cnc2cnn(CC(=O)Nc3ccc4ncnn4c3)c2n1)C1CC2(CC2)C1` [Example 666]: the “Nav1.1 current amplification rate (%)” value was determined as 64%. As for `CN(c1cnc2cnn(CC(=O)Nc3ccc4cccnc4c3)c2n1)C1CC1` [Example 711], the “Nav1.1 current amplification rate (%)” value came to 100%. For `CC1CC=C(c2ccc(=O)n(CC(=O)N3CCc4c(CN(C)C5COC5)cccc43)n2)CC1` (stereo not shown) [Example 276], the “Nav1.1 current amplification rate (%)” value was determined as 207%.

Staying with this test, now noted: Concentration for evaluation 3 μM; HEK293 cell line stably expressing human Nav1.1.
Regarding `COC1CN(Cc2nc3cc(NC(=O)Cn4nc(C5=CCC(C)CC5)ccc4=O)ccc3o2)C1` (stereo not shown) [Example 332], the “Nav1.1 current amplification rate (%)” value was 15%. The same measure, in the same setting: then `CC1CC=C(c2ccc(=O)n(CC(=O)N3CCc4c(C5CN(C)C5)cccc43)n2)CC1` (stereo not shown) [Example 300], with 140%; and `CN(c1cnc2cnn(CC(=O)N3CCN(c4cccc(F)c4)CC3)c2n1)C1CC1` [Example 714], with 11%; and `CC1CC=C(c2ccc(=O)n(CC(=O)N3CCc4cc(C5CN(C6COC6)C5)ccc43)n2)CC1` (stereo not shown) [Example 318], with 77%.

The same test, now with this note: Concentration for evaluation 10 μM; HEK293 cell line stably expressing human Nav1.1.
On to `CC1CC=C(c2ccc(=O)n(CC(=O)N3CCN(c4ccncc4)CC3)n2)CC1` (stereo not shown) [Example 261], for which the “Nav1.1 current amplification rate (%)” value turned out to be 60%. Same read-out and setting: then `CC1CC=C(c2ccc(=O)n(CC(=O)N3CCC(c4ccccc4)CC3)n2)CC1` (stereo not shown) [Example 256], with 36%; and `Cc1nc2cc(NC(=O)Cn3nc(N4CCC(C)CC4)ccc3=O)ccc2o1` [Example 69], with 137%. Turning to `COc1cc(NC(=O)Cn2nc(N3CCC(C)CC3)ccc2=O)ccn1` [Example 74], the “Nav1.1 current amplification rate (%)” value turned out to be 70%. Same read-out and setting: as for `O=C(Cn1nc(C2=CCCC2)ccc1=O)N1CCc2c(N3CCOCC3)cccc21` [Example 481], the figure is 128%; as for `CC1CC=C(c2ccc(=O)n(CC(=O)Nc3ccc(-c4cnn(C)c4)nc3)n2)CC1` (stereo not shown) [Example 375], 173%; as for `N#Cc1ccc(NC(=O)Cn2nc(N3CCC4(CCC4)CC3)ccc2=O)cc1` [Example 26], 364%. With `CC1CCN(c2ccc(=O)n(CC(=O)Nc3ccc(C#N)nc3)n2)CC1` [Example 51], the “Nav1.1 current amplification rate (%)” value is 196%. Regarding `CC1CCN(c2ccc(=O)n(CC(=O)Nc3ccc4oc(N(C)C)nc4c3)n2)CC1` [Example 91], the “Nav1.1 current amplification rate (%)” value stood at 93%.

In the case of `CC1CCN(c2ccc(=O)n(CC(=O)Nc3cccc(-c4nccs4)c3)n2)CC1` [Example 80], the “Nav1.1 current amplification rate (%)” value was 131%. As for `CC1(C)CCC=C(c2ccc(=O)n(CC(=O)Nc3ccc(C#N)cc3)n2)C1` [Example 45], the “Nav1.1 current amplification rate (%)” value worked out at 202%.

Turning to `COc1ccc(NC(=O)Cn2nc(N3CCC(C)CC3)ccc2=O)cn1` [Example 62], the “Nav1.1 current amplification rate (%)” value was found to be 13%.

For `Cc1ccc(-c2ccc(=O)n(CC(=O)N3CCc4cnccc43)n2)cc1` [Example 159], the “Nav1.1 current amplification rate (%)” value is listed as 32%. The same measure, in the same setting: then `COc1cc(C2=CCC(C)CC2)nn(CC(=O)N2CCN(c3cncc(F)c3)CC2)c1=O` (stereo not shown) [Example 488], with 376%; and `CC1CCN(c2ccc(=O)n(CC(=O)Nc3cc(Cl)c4ocnc4c3)n2)CC1` [Example 94], with 198%; and `CC1CC=C(c2ccc(=O)n(CC(=O)Nc3cc4nccn4cc3C#N)n2)CC1` (stereo not shown) [Example 359], with 26%.

Turning to `Cc1nc2cc(NC(=O)Cn3nc(C4=CCC(C)CC4)ccc3=O)ccc2o1` (racemic) [Example 422], the “Nav1.1 current amplification rate (%)” value came out at 287%. The same measure, in the same setting: as for `N#Cc1ccc(NC(=O)Cn2nc(N3CCCC4(CC4)C3)ccc2=O)cc1` [Example 20], the figure is 152%; as for `N#Cc1ccc(NC(=O)Cn2nc(N3CCCCCC3)ccc2=O)cc1` [Example 11], 205%. Same read-out and setting: then `COc1cc(=O)n(CC(=O)N2CCc3c(N4CCOCC4)cccc32)nc1C1=CCC(C)(C)CC1` [Example 470], with 522%; and `COc1cncc(C2=CCN(C(=O)Cn3nc(C4=CCC(C)CC4)ccc3=O)CC2)c1` (stereo not shown) [Example 403], with 270%.

Still in this test, the particulars now being: Concentration for evaluation 50 μM; HEK293 cell line stably expressing human Nav1.1.
For the compound `Cc1ccc(-c2ccc(=O)n(CC(=O)N3CCc4ccccc43)n2)cc1` [Example 157], the “Nav1.1 current amplification rate (%)” value was 29%.

With `C#CCN(C)c1cnc2cnn(CC(=O)Nc3ccc4ncnn4c3)c2n1` [Example 662], the “Nav1.1 current amplification rate (%)” value turned out to be 47%.

Still in this test, the particulars now being: HEK293, concentration for evaluation 0.3 μM; HEK293 stably expressing human Nav1.1; read-out: Nav1.1 current amplification rate (%).
Turning to `CN(c1ncc2cnn(CC(=O)Nc3cnc4cccnc4c3)c2n1)C1CCCC1` [Example 849], the activation at 0.3 µM amounted to 57%.

The same test, now with this note: HEK293, concentration for evaluation 1 μM; HEK293 stably expressing human Nav1.1; read-out: Nav1.1 current amplification rate (%).
Take `CN(CC1CCC1)c1ncc2cnn(CC(=O)Nc3ccc(C#N)nc3)c2n1` [Example 840]: the activation at 1 µM worked out at 164%. On the same count and under the same terms, as for `CC1CC=C(c2ncc3cnn(CC(=O)Nc4ccn5ccnc5c4)c3n2)CC1` (stereo not shown) [Example 832], the figure is 204%; as for `Cc1cc(NC(=O)Cn2ncc3cnc(N(C)C4CCCC4(F)F)nc32)cc2ncnn12` (stereo not shown) [Example 839], 143%.

With `CC1CC=C(c2ccc3cnn(CC(=O)N4CCc5c(N6CCOCC6)cccc54)c3n2)CC1` (stereo not shown) [Example 882], the activation at 1 µM was 88%.

Staying with this test, now noted: concentration for evaluation 1 μM; HEK293 stably expressing human Nav1.1.
Take `CN(CC1(C)CC1)c1ncc2cnn(CC(=O)Nc3ccc4ncnn4c3)c2n1` [Example 822]: the “Nav1.1 current amplification rate (%)” value is given as 42%.

Consider `CN(c1ncc2cnn(CC(=O)Nc3ccc4ncnn4c3)c2n1)C1CCC1` [Example 817], for which the “Nav1.1 current amplification rate (%)” value was 21%.

As to `CN(c1ccc2cnn(CC(=O)Nc3ccc4ncnn4c3)c2n1)C1CCCC1` [Example 875], the “Nav1.1 current amplification rate (%)” value is 43%. Turning to `O=C(Cn1ncc2cnc(C3=CCC(F)(F)CC3)nc21)Nc1ccc2cncnc2c1` [Example 810], the “Nav1.1 current amplification rate (%)” value amounted to 86%. The same measure, in the same setting: as for `O=C(Cn1ncc2ccc(N3CCC4(CC4)C(F)(F)C3)nc21)Nc1ccn2ncnc2c1` [Example 863], the figure is 49%.
